# Experimental data reported in paper PMC6274835, “Inhibitory and Inductive Effects of Opuntia ficus indica Extract and Its Flavonoid Constituents on Cytochrome P450s and UDP-Glucuronosyltransferases” (International Journal of Molecular Sciences, 2018).
# Legend:
# [1] = tested on: UGT isoforms; experiment: ex vivo activity assay in liver microsomes of orally treated OVX rats; parameters: species or system rat; details: E2 0.5 mg/kg/day oral, 5 weeks
# Procedure: (§1) Rats were bilaterally ovariectomized under 1.5-3% isoflurane anesthesia as described previously. […] Administration via forced gastric gavage was performed to ensure the exact amount of test compounds be dosed to each animal. […] Animals were weighed daily and dosage was changed weekly according to weight gain. Animals were euthanized by carbon dioxide inhalation to minimize aversion or distress. Liver microsomal fractions were prepared from livers of OVX rats using differential centrifugation as described previously. […] The HPLC system (Agilent, Santa Clara, CA, USA) consisted of an Agilent 1200 binary pump, DAD, and Agilent 1260 autosampler. A Kinetex C18 reverse-phase column (5 μm, 4.6 × 150 mm) (Phenomenex, Torrance, CA, USA) protected by a KrudKatcher Ultra HPLC in-line filter (Phenomenex) was used for separation. HPLC conditions to determine the isozyme-specific metabolites and major constituents in OFIE are described in the Supplementary Materials. LC-electrospray (ESI)-tandem mass spectrometry (MS^2) analysis was employed to detect glucuronide products. An Linear Trap Quadropole (LTQ) linear ion trap mass spectrometer (Thermo Scientific, Waltham, MA, USA) with an ESI source was coupled with an Agilent 1200 HPLC system.
# [2] = tested on: CYP2B1; experiment: as above; parameters: species or system rat; details: E2 0.5 mg/kg/day oral, 5 weeks, control group set as 1
# Procedure: as §1
# [3] = target: T1, human constitutive androstane receptor (hCAR) (Homo sapiens, UniProt Q14994); experiment: CAR-mediated CYP2B6 promoter luciferase reporter assay in HepG2 cells; type: cell-based; details: E2, concentration not given, 24 h, vs DMSO
# T1 construct: expressed in transfected cells; host or cells: HepG2
# T1 sequence (Q14994 1-352): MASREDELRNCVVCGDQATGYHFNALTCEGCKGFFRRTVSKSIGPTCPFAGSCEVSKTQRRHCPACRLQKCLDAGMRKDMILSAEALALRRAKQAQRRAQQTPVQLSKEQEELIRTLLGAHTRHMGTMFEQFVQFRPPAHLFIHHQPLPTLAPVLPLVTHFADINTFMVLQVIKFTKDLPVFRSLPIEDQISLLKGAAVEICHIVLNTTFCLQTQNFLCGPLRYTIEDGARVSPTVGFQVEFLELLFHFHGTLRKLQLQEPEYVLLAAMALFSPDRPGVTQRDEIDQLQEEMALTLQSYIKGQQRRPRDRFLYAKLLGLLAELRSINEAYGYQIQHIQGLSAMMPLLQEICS
# [4] = tested on: CYP3A1; experiment: hepatic mRNA expression (qPCR) in OVX rats after 5-week oral administration; type: in vivo; details: OVX rat liver; E2 0.5 mg/kg/day oral, 5 weeks; vs vehicle control
# [5] = tested on: CYP2D1; experiment: as above; type: in vivo; details: OVX rat liver; E2 0.5 mg/kg/day oral, 5 weeks; vs vehicle control
# Procedure: (§2) Rats were bilaterally ovariectomized under 1.5–3% isoflurane anesthesia as described previously. […] Administration via forced gastric gavage was performed to ensure the exact amount of test compounds be dosed to each animal. […] Animals were weighed daily and dosage was changed weekly according to weight gain. Animals were euthanized by carbon dioxide inhalation to minimize aversion or distress. Liver microsomal fractions were prepared from livers of OVX rats using differential centrifugation as described previously.
# (§3) The total RNA was isolated from homogenized rat liver tissue using a Nucleospin RNA/Protein kit (Macherey-Nagel, Düren, Germany) according to the manufacturer’s manual. The cDNA was synthesized from the total RNA (2 μg) using oligo (dT) and M-MLV reverse transcriptase (Promega, Madison, WI, USA). A qPCR analysis was performed to determine the mRNA levels of both hepatic CYP and UGT isozymes on an ABI Prism 7500 Sequence Detection System (Applied Biosystems, Foster City, CA, USA) using SYBR Green PCR Master Mix (Toyobo, Osaka, Japan) and a gene-specific primer set (Table S1 for primer sequences).
# [6] = tested on: UGT2B1; experiment: as above; type: in vivo; details: OVX rat liver; E2 0.5 mg/kg/day and both doses of OFIE (250, 500 mg/kg/day) oral, 5 weeks; range over the groups
# Procedure: as §2, §3
# [7] = tested on: CYP2B1; experiment: as above; type: in vivo; details: OVX rat liver; E2 0.5 mg/kg/day oral, 5 weeks; vs vehicle control
# Procedure: After 14 days of endogenous hormonal decline, rats were randomly divided into several groups (n = 6 per group) and subjected to oral administration of olive oil (control), E2 (0.5 mg/kg/day, positive control) or OFIE (250 and 500 mg/kg/day) via gastric gavage for 5 weeks. […] Administration via forced gastric gavage was performed to ensure the exact amount of test compounds be dosed to each animal. […] Animals were weighed daily and dosage was changed weekly according to weight gain.
# The total RNA was isolated from homogenized rat liver tissue using a Nucleospin RNA/Protein kit (Macherey-Nagel, Düren, Germany) according to the manufacturer’s manual. The cDNA was synthesized from the total RNA (2 μg) using oligo (dT) and M-MLV reverse transcriptase (Promega, Madison, WI, USA). A qPCR analysis was performed to determine the mRNA levels of both hepatic CYP and UGT isozymes on an ABI Prism 7500 Sequence Detection System (Applied Biosystems, Foster City, CA, USA) using SYBR Green PCR Master Mix (Toyobo, Osaka, Japan) and a gene-specific primer set (Table S1 for primer sequences). The ABI 7500 Software (v2.0.6, Foster City, CA, USA) was used for the estimation of CT. The 2^−ΔΔCt method was applied for relative quantification. […] The results were expressed as fold change when the gene expression level in the vehicle control-treated sample was set as 1.
# [8] = target: T2, human pregnane X receptor (hPXR) (Homo sapiens, UniProt O75469); experiment: PXR-mediated CYP3A4 promoter luciferase reporter assay in HepG2 cells; type: cell-based; details: 24 h, vs DMSO; for induction in the PXR promoter activity: individual flavonoids 10 μM
# T2 construct: expressed in transfected cells; host or cells: HepG2
# T2 sequence (O75469 1-434): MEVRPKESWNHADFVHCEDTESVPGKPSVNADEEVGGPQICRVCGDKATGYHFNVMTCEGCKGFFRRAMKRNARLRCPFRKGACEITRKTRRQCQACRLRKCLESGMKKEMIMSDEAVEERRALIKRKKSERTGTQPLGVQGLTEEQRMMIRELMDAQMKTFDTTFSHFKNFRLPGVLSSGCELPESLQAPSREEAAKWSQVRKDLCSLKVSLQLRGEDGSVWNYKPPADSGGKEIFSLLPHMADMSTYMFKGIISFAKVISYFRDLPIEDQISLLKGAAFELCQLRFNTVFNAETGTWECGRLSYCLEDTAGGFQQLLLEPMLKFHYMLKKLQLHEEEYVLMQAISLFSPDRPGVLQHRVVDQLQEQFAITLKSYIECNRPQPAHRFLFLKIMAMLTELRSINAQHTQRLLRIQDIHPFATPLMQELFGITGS
# Procedure: The human hepatocarcinoma cell line HepG2 was purchased from the […] (Manassas, VA, USA) and maintained in Dulbecco’s modified Eagle’s essential medium (DMEM) containing 10% fetal bovine serum, 1% nonessential amino acids, 1% GlutaMAX, and 1% antibiotics/antimycotics in a 5% CO2 atmosphere at 37 °C.
# The expression plasmid for human constitutive androstane receptor (hCAR; pcDNA3-CAR) and pGL3-CYP2B6 luciferase construct were kindly provided by Dr. Hongbing Wang (University of Maryland, College Park, MD, USA). The plasmid for human pregnane X receptor (hPXR; pcDNA3-PXR) and pGL3-CYP3A4 luciferase construct were generous gifts from Masahiko Negishi (National Institutes of Health, Bethesda, MD, USA). HepG2 cells were seeded at a density of 1.5 × 10^5 cells/well into a 24-well plate. On the next day, the cells were transfected with 0.25 μg of either pcDNA3-CAR or pcDNA3-PXR and 0.25 μg of promoter luciferase plasmid (i.e., either pGL3-CYP2B6 or pGL3-CYP3A4) using Lipofectamine 2000 (Invitrogen, Carlsbad, CA, USA) according to the manufacturer’s instructions. To normalize the transfection efficiency, the pRL-TK plasmid (0.25 μg/well; Promega), which contains cDNA encoding Renilla luciferase, was cotransfected. The transfected cells were grown for 24 h, treated with various test materials, and incubated for an additional 24 h. The luciferase activities in the cell lysates were measured using the dual luciferase assay system (Promega) with a SpectraMax i3x (Molecular Devices, San Jose, CA, USA). Data are reported as a relative luciferase activity, which is the firefly luciferase reading divided by the Renilla luciferase reading.
# [9] = target: T3, CYP1A2 (Homo sapiens, UniProt P05177); experiment: CYP inhibition assay in human liver microsomes; type: in vitro ADME; details: pooled human liver microsomes, individual constituents 10 μM; for inhibition at 60 min, 10 μM: pH 7.4
# T3 construct: tissue Corning 452117; host or cells: pooled human liver microsomes (150 donors)
# T3 sequence (P05177 1-516): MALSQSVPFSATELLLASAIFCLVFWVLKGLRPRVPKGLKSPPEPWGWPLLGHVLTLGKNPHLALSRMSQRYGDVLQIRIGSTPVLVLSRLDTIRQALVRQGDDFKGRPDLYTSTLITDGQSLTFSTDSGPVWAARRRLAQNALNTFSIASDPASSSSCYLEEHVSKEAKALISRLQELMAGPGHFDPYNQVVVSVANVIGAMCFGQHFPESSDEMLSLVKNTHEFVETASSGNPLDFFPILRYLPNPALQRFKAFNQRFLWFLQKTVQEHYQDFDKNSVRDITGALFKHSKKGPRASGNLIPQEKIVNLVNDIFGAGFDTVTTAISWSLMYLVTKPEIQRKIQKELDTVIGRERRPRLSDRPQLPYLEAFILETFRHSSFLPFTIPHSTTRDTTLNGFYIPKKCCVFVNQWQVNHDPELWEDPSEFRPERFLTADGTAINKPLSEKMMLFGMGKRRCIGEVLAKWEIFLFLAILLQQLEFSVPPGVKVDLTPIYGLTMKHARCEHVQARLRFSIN
# Procedure: (§4) CYP-mediated metabolite formation from a substrate (200 μM each) or the formation of glucuronide conjugates from the UGT isozyme-specific substrate (200 μM each) was monitored to determine the isozyme activity. Typical incubation was performed with rat (1 mg/mL) or human (0.5 mg/mL) liver microsomes in the presence of an appropriate cofactor in a buffer system (pH 7.4) at 37 °C for 60 min as described previously.
# The HPLC system (Agilent, Santa Clara, CA, USA) consisted of an Agilent 1200 binary pump, DAD, and Agilent 1260 autosampler. A Kinetex C18 reverse-phase column (5 μm, 4.6 × 150 mm) (Phenomenex, Torrance, CA, USA) protected by a KrudKatcher Ultra HPLC in-line filter (Phenomenex) was used for separation. […] LC-electrospray (ESI)-tandem mass spectrometry (MS^2) analysis was employed to detect glucuronide products. An Linear Trap Quadropole (LTQ) linear ion trap mass spectrometer (Thermo Scientific, Waltham, MA, USA) with an ESI source was coupled with an Agilent 1200 HPLC system.
# [10] = tested on: CYP2C11; experiment: CYP inhibition assay in OVX rat liver microsomes; type: in vitro ADME; details: for inhibition at 60 min, 10 μM: female, liver microsomes from ovariectomized (OVX) rats, pH 7.4, individual constituents 10 μM
# Procedure: as §4
# (§5) The HPLC system (Agilent, Santa Clara, CA, USA) consisted of an Agilent 1200 binary pump, DAD, and Agilent 1260 autosampler. A Kinetex C18 reverse-phase column (5 μm, 4.6 × 150 mm) (Phenomenex, Torrance, CA, USA) protected by a KrudKatcher Ultra HPLC in-line filter (Phenomenex) was used for separation. HPLC conditions to determine the isozyme-specific metabolites and major constituents in OFIE are described in the Supplementary Materials. LC-electrospray (ESI)-tandem mass spectrometry (MS^2) analysis was employed to detect glucuronide products. An Linear Trap Quadropole (LTQ) linear ion trap mass spectrometer (Thermo Scientific, Waltham, MA, USA) with an ESI source was coupled with an Agilent 1200 HPLC system.
# [11] = tested on: CYP3A1; experiment: CYP inhibition assay in OVX rat liver microsomes; type: in vitro ADME; details: female, liver microsomes from ovariectomized (OVX) rats, pH 7.4, individual constituents 10 μM
# Procedure: as §4, §5
# [12] = target: T4, CYP3A4 (Homo sapiens, UniProt P08684); parameters: method as in earlier work; details: range given jointly for quercetin and kaempferol on CYP1A2 and CYP3A4; Von Moltke et al.; read-out: IC50, inhibition of CYP3A4; cited from earlier work
# T4 construct: tissue Corning 452117; host or cells: pooled human liver microsomes (150 donors)
# T4 sequence (P08684 whole entry): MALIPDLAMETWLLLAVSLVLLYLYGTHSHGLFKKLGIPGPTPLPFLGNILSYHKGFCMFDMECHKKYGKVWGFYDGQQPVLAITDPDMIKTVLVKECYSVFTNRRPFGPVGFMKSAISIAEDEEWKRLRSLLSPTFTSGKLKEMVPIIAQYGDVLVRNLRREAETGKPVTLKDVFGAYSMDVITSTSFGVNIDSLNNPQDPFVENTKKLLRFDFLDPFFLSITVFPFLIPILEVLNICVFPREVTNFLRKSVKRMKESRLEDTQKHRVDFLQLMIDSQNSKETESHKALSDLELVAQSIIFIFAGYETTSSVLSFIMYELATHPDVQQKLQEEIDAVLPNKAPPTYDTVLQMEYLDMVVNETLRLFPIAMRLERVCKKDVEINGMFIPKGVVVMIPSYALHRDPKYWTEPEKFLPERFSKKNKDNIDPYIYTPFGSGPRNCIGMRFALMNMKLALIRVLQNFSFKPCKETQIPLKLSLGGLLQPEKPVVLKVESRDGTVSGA
compound,measurement,setting,value
"C[C@]12CC[C@@H]3c4ccc(O)cc4CC[C@H]3[C@@H]1CC[C@@H]2O [E2, 17β-Estradiol]",change in activities of all UGT isoforms examined,[1],no changes
same,increase in activity of CYP2B1,[2],2.7 fold
same,increase in CAR-mediated CYP2B6 reporter activity,[3],4.8 fold
same,increase in mRNA expression of CYP3A1,[4],12 fold
same,increase in mRNA expression of CYP2D1,[5],2.6 fold
same,increased expression of UGT2B1 mRNA,[6],3.8–6.5 folds
same,increase in mRNA expression of CYP2B1,[7],7.7 fold
same,PXR-mediated CYP3A4 reporter activity,"[8]; E2, concentration not given",did not alter
COc1cc(-c2oc3cc(O)cc(O)c3c(=O)c2O)ccc1O [isorhamnetin],"inhibition at 60 min, 10 μM",[9],40%
same,inhibition of rat CYP2C11 activity,[10]; individual constituents 10 μM,did not result in a significant inhibition
O=c1c(O)c(-c2ccc(O)cc2)oc2cc(O)cc(O)c12 [kaempferol],"inhibition at 60 min, 10 μM",[11],20%
same,"inhibition at 60 min, 10 μM",[10],10%
same,IC50,[12],10 to 16 µM
COc1cc(-c2oc3cc(O)cc(O)c3c(=O)c2O[C@@H]2O[C@H](CO[C@@H]3O[C@@H](C)[C@H](O)[C@@H](O)[C@H]3O)[C@@H](O)[C@H](O)[C@H]2O)ccc1O [narcissin],inhibition of human CYP1A2 activity,[9],did not significantly inhibit
same,"inhibition at 60 min, 10 μM",[11],10%
same,induction in the PXR promoter activity,[8],significant induction
O=c1c(O)c(-c2ccc(O)c(O)c2)oc2cc(O)cc(O)c12 [quercetin],"inhibition at 60 min, 10 μM",[9],31%
same,"inhibition at 60 min, 10 μM",[11],10%
same,"inhibition at 60 min, 10 μM",[10],18%
C[C@@H]1O[C@@H](OC[C@H]2O[C@@H](Oc3c(-c4ccc(O)c(O)c4)oc4cc(O)cc(O)c4c3=O)[C@H](O)[C@@H](O)[C@@H]2O)[C@H](O)[C@H](O)[C@H]1O [rutin],induction in the PXR promoter activity,[8],significant induction
